Test results taken from ChEMBL document CHEMBL1687870, “Antimicrobial isopropenyl-dihydrofuranoisoflavones from Crotalaria lachnophora” (2011).
Activity calls are given as the source filed them. The rule behind the calls is not given here.

What was measured:
Staphylococcus aureus = test: Antimicrobial activity against Staphylococcus aureus DSM 799 at 1 ug/ul after 24 hrs by disk diffusion method; format: functional
Klebsiella pneumoniae = test: Antimicrobial activity against Klebsiella pneumoniae DSM 681 at 1 ug/ul after 24 hrs by disk diffusion method; format: functional
Pseudomonas aeruginosa = test: Antimicrobial activity against Pseudomonas aeruginosa DSM 1128 at 1 ug/ul after 24 hrs by disk diffusion method; format: functional
Escherichia coli = test: Antimicrobial activity against Escherichia coli DSM 682 after 24 hrs by disk diffusion method; format: functional
Candida albicans = test: Antifungal activity against Candida albicans DSM 1386 after 24 hrs by disk diffusion method; format: functional, organism-based
Aspergillus niger = test: Antifungal activity against Aspergillus niger DSM 1988 after 48 hrs by disk diffusion method; format: functional, organism-based

Compound	diameter of the inhibition zone (DIZ) (Staphylococcus aureus) [mm]	diameter of the inhibition zone (DIZ) (Klebsiella pneumoniae) [mm]	diameter of the inhibition zone (DIZ) (Pseudomonas aeruginosa) [mm]	diameter of the inhibition zone (DIZ) (Escherichia coli) [mm]	Activity (Staphylococcus aureus)	Activity (Candida albicans)	Activity (Aspergillus niger)	Activity (Pseudomonas aeruginosa)	inhibition zone (IZ) (Staphylococcus aureus) [mm]	inhibition zone (IZ) (Klebsiella pneumoniae) [mm]	inhibition zone (IZ) (Pseudomonas aeruginosa) [mm]	inhibition zone (IZ) (Escherichia coli) [mm]
CN(C)[C@@H]1C(O)=C(C(N)=O)C(=O)[C@@]2(O)C(O)=C3C(=O)c4c(O)cccc4[C@@](C)(O)[C@H]3C[C@@H]12 [TETRACYCLINE]	20.7	26.3	17.7	22.3	–	–	–	–	–	–	–	–
C=C(C)C1Cc2c(O)cc3occ(-c4ccc(O)cc4O)c(=O)c3c2O1 (racemic)	–	7	–	8.3	inactive	inactive	inactive	inactive	–	–	–	–
C[C@@H]1O[C@@H](Oc2cc(O)c3c(=O)cc(-c4ccc(O)c(O)c4)oc3c2)[C@H](O)[C@H](O)[C@H]1O	–	7.7	–	10.7	inactive	inactive	inactive	inactive	–	–	–	–
COc1cc(O)c2c(c1)OC[C@H](c1ccc(O)cc1OC)C2=O [CAJANOL]	–	9.3	–	7.3	inactive	inactive	inactive	inactive	–	–	–	–
COc1cc2occ(-c3ccc(O)cc3)c(=O)c2c(O)c1OC [7-O-METHYLTECTORIGENIN]	–	7	–	9.3	inactive	inactive	inactive	inactive	–	–	–	–
COc1cc(O)c2c(=O)c(-c3ccc(O)cc3)coc2c1 [PRUNETIN]	–	9.3	–	7.3	inactive	inactive	inactive	inactive	–	–	–	–
CC1(C)S[C@@H]2[C@H](NC(=O)[C@H](N)c3ccccc3)C(=O)N2[C@H]1C(=O)O [AMPICILLIN]	–	11.7	–	24.3	inactive	–	–	inactive	–	–	–	–
C=C(C)C1Cc2c(cc3oc4oc5cc(O)ccc5c4c(=O)c3c2O)O1 (stereo unspecified) [LACHNOISOFLAVONE B]	–	7.3	–	7	inactive	inactive	inactive	inactive	–	–	–	–
COc1cc(O)c2c(=O)c(-c3ccc(O)cc3O)coc2c1 [CAJANIN]	–	9.7	–	7.3	inactive	inactive	inactive	inactive	–	–	–	–
GENTAMICIN	–	–	–	–	–	–	–	–	15.3	14.3	20.3	16.3
CN[C@@H]1[C@H](O[C@H]2[C@H](O[C@H]3[C@H](O)[C@@H](O)[C@H](N=C(N)N)[C@@H](O)[C@@H]3N=C(N)N)O[C@@H](C)[C@]2(O)C=O)O[C@@H](CO)[C@H](O)[C@H]1O [STREPTOMYCIN]	–	21.3	–	19.3	inactive	–	–	inactive	–	–	–	–
O=c1c(-c2ccc(O)cc2O)coc2cc(O)cc(O)c12	–	7	–	7	inactive	inactive	inactive	inactive	–	–	–	–
COc1cc(-c2coc3cc(O)cc(O)c3c2=O)ccc1O [3'-O-METHYLOROBOL]	–	8.3	–	7	inactive	inactive	inactive	inactive	–	–	–	–
C=C(C)[C@H]1Cc2c(cc3occ(-c4ccc(O)cc4)c(=O)c3c2O)O1 [LICOAGROISOFLAVONE]	–	9.3	–	7.3	inactive	inactive	inactive	inactive	–	–	–	–
